This is an account of results in article PMC11124336 (Molecules, 2024).

A word on the IC50: it is the concentration that gives 50% inhibition. Low readings indicate greater potency in that assay, high ones weaker potency in that assay. For orientation: Km means the concentration of substrate that gives half-maximal velocity.

Data set [1] concerns the target T1, Type II NADH dehydrogenase (NDH-2, NdhC) (Staphylococcus aureus, UniProt Q2FZV7).
T1 construct: gene SAOUHSC_00878; N-terminal 6His-tagged NDH-2 (ndhC gene from S. aureus 25923)
T1 sequence (Q2FZV7 1-402): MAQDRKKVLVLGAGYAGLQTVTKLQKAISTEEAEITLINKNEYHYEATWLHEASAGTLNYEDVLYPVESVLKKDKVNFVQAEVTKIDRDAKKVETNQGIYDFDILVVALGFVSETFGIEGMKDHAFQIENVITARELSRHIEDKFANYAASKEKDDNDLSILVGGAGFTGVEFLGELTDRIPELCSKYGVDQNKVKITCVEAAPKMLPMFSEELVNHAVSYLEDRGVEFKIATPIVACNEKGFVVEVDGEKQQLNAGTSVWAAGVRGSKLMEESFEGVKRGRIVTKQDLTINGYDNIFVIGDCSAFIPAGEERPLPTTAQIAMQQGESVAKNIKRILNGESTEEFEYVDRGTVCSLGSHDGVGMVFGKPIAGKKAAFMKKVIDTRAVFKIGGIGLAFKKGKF
Briefly: activity of FAD-depleted purified enzyme restored by added FAD. It counts as biochemical.

Data set [2] has as its target T1, Type II NADH dehydrogenase (NDH-2, NdhC). Briefly: NADH oxidation assay at […] nm with menadione. In kind it is biochemical.
Substrate in data set [3]: CC1=CC(=O)c2ccccc2C1=O
The data set is described as follows: steady-state kinetics of purified enzyme (Km). The settings on record: FAD. In kind it is biochemical, Staphylococcus aureus.

Substrate in data set [4]: NC(=O)C1=CN([C@@H]2O[C@H](COP(=O)(O)OP(=O)(O)OC[C@H]3O[C@@H](n4cnc5c(N)ncnc54)[C@H](O)[C@@H]3O)[C@@H](O)[C@H]2O)C=CC1
The data set is described as follows: steady-state kinetics of purified enzyme (Km). In kind it is biochemical, Staphylococcus aureus. Particulars: FAD.

In the case of `Cc1cc2nc3c(=O)[nH]c(=O)nc-3n(C[C@H](O)[C@H](O)[C@H](O)COP(=O)(O)OP(=O)(O)OC[C@H]3O[C@@H](n4cnc5c(N)ncnc54)[C@H](O)[C@@H]3O)c2cc1C` [FAD], the “activity of FAD-depleted purified enzyme restored by added FAD” value in data set [1] is reported as “the addition of exogenous FAD to the reaction mix restored the NADH dehydrogenase activity of the recombinant protein”.

As for `CCCCCCCc1cc(O)c2ccccc2[n+]1[O-]` [HQNO, 2-heptyl-4-hydroxyquinoline-N-oxide], half-maximal inhibition in data set [2] (IC50) required 9 µM.

B1: Type II NADH dehydrogenase (NDH-2, NdhC) (Staphylococcus aureus subsp. aureus NCTC 8325) (protein)
chain: MAQDRKKVLVLGAGYAGLQTVTKLQKAISTEEAEITLINKNEYHYEATWLHEASAGTLNYEDVLYPVESVLKKDKVNFVQAEVTKIDRDAKKVETNQGIYDFDILVVALGFVSETFGIEGMKDHAFQIENVITARELSRHIEDKFANYAASKEKDDNDLSILVGGAGFTGVEFLGELTDRIPELCSKYGVDQNKVKITCVEAAPKMLPMFSEELVNHAVSYLEDRGVEFKIATPIVACNEKGFVVEVDGEKQQLNAGTSVWAAGVRGSKLMEESFEGVKRGRIVTKQDLTINGYDNIFVIGDCSAFIPAGEERPLPTTAQIAMQQGESVAKNIKRILNGESTEEFEYVDRGTVCSLGSHDGVGMVFGKPIAGKKAAFMKKVIDTRAVFKIGGIGLAFKKGKF
notes: N-terminal 6His-tagged NDH-2 (ndhC gene from S. aureus 25923)
On to B1, for which the Km in data set [3] was determined as 19.9 ± 0.7 µM; in data set [4], 90.8 ± 16.2 µM.
